Several values for one entry are separate records, joined by “and”; a condition that tells them apart may be missing. Equal entries are not always repeated.
Assays:
A/WSN/33 virus [1] = test: Influenza A viral growth assay (viral titer of culture media); format: cell-based, influenza A H1N1 virus; conditions: A/WSN/33 (WSN), 12.5uM, average of #1-3 exp (n=9)
[2] = test system: canine interferon-β (Ifn-β); test: RT-qPCR of Ifn-β mRNA in MDCK cells with or without A/PR/8/34 virus; format: cell-based; conditions: 12.5uM, relative to virus - DMSO; for MDCK IFN-b mRNA, ave: ave of #1-3 exp; for MDCK IFN-b mRNA, individual replicates: replicates 1-3 of #1, #2, #3 exp, listed as Cyclobakuchiol D
A/PR/8/34 virus [3] = test: Immunofluorescence staining of viral NP in influenza A virus-infected MDCK cells; conditions: for NP/DAPI (%) ave: average of 9 wells
A/WSN/33 virus [4] = test: as above; conditions: WSN
A/PR/8/34 virus [5] = test: RT-qPCR of viral mRNAs (NP, NS1, PA, PB1, PB2, M2) in infected MDCK cells; format: cell-based, influenza A H1N1 virus
[6] = test system: NAD(P)H quinone oxidoreductase 1 (Nqo1); test: RT-qPCR of Nqo1 mRNA in MDCK cells with or without A/PR/8/34 virus; format: cell-based, canine; conditions: 12.5uM, MDCK, relative to virus - DMSO; for NQO1 Canis lupus mRNA, ave: ave of #1-3 exp; for NQO1 Canis lupus mRNA, individual replicates: replicates 1-3 of #1, #2, #3 exp, listed as Cyclobakuchiol D
Nrf2 = Nrf2 reporter assay (dual luciferase system) in MDCK cells; format: cell-based, canine
A/PR/8/34 virus [7] = test: Influenza A viral growth assay (viral titer of culture media); format: cell-based, influenza A H1N1 virus; design: viral titer of culture media, individual replicate / viral titer of culture media, ave: unit not given here; conditions: A/PR/8/34 (PR8), 12.5uM, average of #1-3 exp (n=9)
A/PR/8/34 virus [8] = format: cell-based; conditions: 12.5 μM, 24h WB
[9] = MDCK cells, PR8 virus, relative to DMSO (about 1), ave of #1-3 exp (9 values)
[10] = MDCK cells, PR8 virus, relative to DMSO, replicates 1-3 of #1, #2, #3 exp, listed as Cyclobakuchiol D
[11] = single experiment, listed as cyclo D

Structure (SMILES): C=C[C@]1(C)CCC(C(C)(C)O)C(c2ccc(O)cc2)C1 (stereo in doubt) [cyclobakuchiol D]
- viral titer of culture media, ave (A/WSN/33 virus [1]; 12h): 10344.4
- viral titer of culture media, ave (A/WSN/33 virus [1]; 24h): 25855556
- viral titer of culture media, ave (A/WSN/33 virus [1]; 48h): 191111111
- viral titer of culture media, ave (A/WSN/33 virus [1]; 72h): 140200000
- MDCK IFN-b mRNA, ave ([2]; virus +): 17.4654
- MDCK IFN-b mRNA, individual replicates ([2]; virus +): 2.418 and 33.9435 and 15.7832 and 32.7435 and 6.882 and 51.6835 and 8.73 and 2.955 and 2.05
- MDCK IFN-b mRNA, ave ([2]; virus -): 2.784
- MDCK IFN-b mRNA, individual replicates ([2]; virus -): 0.8154 and 7.71 and 7.894 and 3.201 and 1.087 and 1.374 and 1.346 and 0.9591 and 0.6654
- NP/DAPI (%) ave (A/PR/8/34 virus [3]; A/PR/8/34, 3.13 uM): 8.962%
- NP (NP-positive cell count) (A/PR/8/34 virus [3]; A/PR/8/34, 3.13 uM, single well, listed as Cyclobaku. D): 26 and 38 and 24 and 36 and 32 and 28 and 35 and 30
- NP/DAPI (%) ave (A/PR/8/34 virus [3]; A/PR/8/34, 6.25 uM): 5.506%
- NP/DAPI (%) ave (A/PR/8/34 virus [3]; A/PR/8/34, 12.5 uM): 1.974%
- NP/DAPI (%) ave (A/PR/8/34 virus [3]; A/PR/8/34, 25 uM): 1.609%
- IC50 (A/PR/8/34 virus [3]; Influenza A virus, PR/8, MDCK, read-out: half maximal (50%) inhibitory concentration (IC50)): 8.8 ± 2.4 µM
- NP/DAPI (%) ave (A/WSN/33 virus [4]; 3.13uM, ave of 9 values (3 exp)): 30.4806%
- NP/DAPI (%) ave (A/WSN/33 virus [4]; 6.25uM, ave of 9 values (3 exp)): 29.9222%
- NP/DAPI (%) ave (A/WSN/33 virus [4]; 12.5uM, ave of 9 values (3 exp)): 34.4723%
- NP/DAPI (%) ave (A/WSN/33 virus [4]; 25uM, ave of 9 values (3 exp)): 38.5623%
- NP/DAPI (%) ave (A/WSN/33 virus [4]; ave summary, 3.13%): 30.4806%
- NP/DAPI (%) ave (A/WSN/33 virus [4]; ave summary, 6.25%): 29.9222%
- NP/DAPI (%) ave (A/WSN/33 virus [4]; ave summary, 12.50%): 34.4723%
- NP/DAPI (%) ave (A/WSN/33 virus [4]; ave summary, 25%): 38.5623%
- PR8 NP gene expression qPCR, ave (A/PR/8/34 virus [5]; MDCK PR8, NP mRNA, relative (DMSO about 1), average of #1-3 exp (n=9)): 0.07153
- PR8 NP gene expression qPCR, individual replicate (A/PR/8/34 virus [5]; MDCK PR8, NP mRNA, relative (DMSO about 1), replicates of #1-3 exp, listed as Cyclobakuchiol D): 0.03886 and 0.05994 and 0.05606 and 0.05458 and 0.125 and 0.1151 and 0.1425 and 0.0275 and 0.02409
- PR8 NS1 gene expression qPCR, ave (A/PR/8/34 virus [5]; MDCK PR8, NS1 mRNA, relative (DMSO about 1), average of #1-3 exp (n=9)): 0.04518
- PR8 NS1 gene expression qPCR, individual replicate (A/PR/8/34 virus [5]; MDCK PR8, NS1 mRNA, relative (DMSO about 1), replicates of #1-3 exp, listed as Cyclobakuchiol D): 0.02832 and 0.04013 and 0.04518 and 0.04355 and 0.06568 and 0.06468 and 0.07589 and 0.02316 and 0.02
- PR8 PA gene expression qPCR, ave (A/PR/8/34 virus [5]; MDCK PR8, PA mRNA, relative (DMSO about 1), average of #1-3 exp (n=9)): 0.04749
- PR8 PA gene expression qPCR, individual replicate (A/PR/8/34 virus [5]; MDCK PR8, PA mRNA, relative (DMSO about 1), replicates of #1-3 exp, listed as Cyclobakuchiol D): 0.03007 and 0.03859 and 0.03028 and 0.03293 and 0.08115 and 0.07941 and 0.08873 and 0.02395 and 0.02226
- PR8 M2 gene expression qPCR, ave (A/PR/8/34 virus [5]; [9]): 0.04919
- PR8 PB1 gene expression qPCR, ave (A/PR/8/34 virus [5]; [9]): 0.04173
- PR8 PB2 gene expression qPCR, ave (A/PR/8/34 virus [5]; [9]): 0.05311
- PR8 M2 gene expression qPCR, individual replicates (A/PR/8/34 virus [5]; [10]): 0.03101 and 0.05567 and 0.03306 and 0.04539 and 0.07613 and 0.07839 and 0.08038 and 0.02111 and 0.02153
- PR8 PB1 gene expression qPCR, individual replicates (A/PR/8/34 virus [5]; [10]): 0.03148 and 0.02292 and 0.01741 and 0.02275 and 0.0784 and 0.07991 and 0.07514 and 0.02623 and 0.02132
- PR8 PB2 gene expression qPCR, individual replicates (A/PR/8/34 virus [5]; [10]): 0.03118 and 0.04821 and 0.03936 and 0.04228 and 0.08338 and 0.07806 and 0.1008 and 0.0302 and 0.02454
- NQO1 Canis lupus mRNA, ave ([6]; virus + (PR8)): 1.2349
- NQO1 Canis lupus mRNA, individual replicates ([6]; virus + (PR8)): 1.289 and 1.376 and 1.34 and 1.5629 and 0.8611 and 0.8923 and 0.9522 and 1.447 and 1.3929
- NQO1 Canis lupus mRNA, ave ([6]; virus -): 1.178
- NQO1 Canis lupus mRNA, individual replicates ([6]; virus -): 1.099 and 1.305 and 1.308 and 1.291 and 1.087 and 1.132 and 1.031 and 1.075 and 1.276
- Nrf2 activation (reporter assay) in contrast to DMSO (Nrf2; 12.5 μM, 24 h, MDCK cells): did not induce Nrf2 activation
- pNQO1-ARE-Luc NRF2 reporter assay, ave (Nrf2; 12.5uM, relative to DMSO trans+, ave of #1-3 exp): 1.2008
- pNQO1-ARE-Luc NRF2 reporter assay, individual replicates (Nrf2; 12.5uM, relative to DMSO trans+, two values each of #1, #2, #3 exp, listed as Cyclobakuchiol D): 1.181 and 1.006 and 1.453 and 1.158 and 1.274 and 1.134
- viral titer of culture media, ave (A/PR/8/34 virus [7]; 12h): 23333.3
- viral titer of culture media, ave (A/PR/8/34 virus [7]; 24h): 46666.7
- viral titer of culture media, ave (A/PR/8/34 virus [7]; 48h): 42222.2
- viral titer of culture media, ave (A/PR/8/34 virus [7]; 72h): 51111.1
- NP/b-actin ave (A/PR/8/34 virus [8]; average of 3 experiments): 0.8053
- NS1/b-actin ave (A/PR/8/34 virus [8]; average of 3 experiments): 0.5049
- NP mean (western blot signal intensity, ImageJ) (A/PR/8/34 virus [8]; [11]): 94.385 and 99.104 and 119.4
- NP/b-actin (A/PR/8/34 virus [8]; [11]): 0.9145 and 0.7726 and 0.7289
- NS1/b-actin (A/PR/8/34 virus [8]; [11]): 0.4761 and 0.5377 and 0.5009
- NS1 mean (western blot signal intensity, ImageJ) (A/PR/8/34 virus [8]; [11]): 65.696 and 68.111 and 62.157
